US10548871B2, “Low-dose doxepin formulations and methods of making and using the same” (Pernix Sleep, Inc., priority 2007, dated 2020)
Structures can show the parent of a compound that is named as a salt.

Columns and labels:
[1] = Biopharmaceutic Classification System; cited from earlier work
[2] = Pharmacokinetic performance of low dose doxepin capsules and tablets in healthy adult volunteers, crossover design; type: in vivo, human; conditions: majority of subjects
Protocol: The pharmacokinetic performance of oral, low dose doxepin formulations is well suited to the treatment of insomnia. The pharmacokinetic performance of capsules containing 1, 3 or 6 mg doxepin, as well as tablets containing 6 mg doxepin, was evaluated in healthy adult volunteers under a crossover design.
Of further interest to the pharmacokinetic performance of these doxepin formulations was the time necessary to reach certain plasma concentrations. Reaching particular concentrations in plasma can play a role in establishing therapeutic benefit. In particular, doxepin concentrations in plasma reach 0.05 ng/mL in the majority of subjects for all doses within 90 minutes after dosing. […] Such pharmacokinetic performance is beneficial in the treatment of insomnia, as reaching measurable plasma concentrations in a timely manner can be preferred for facilitating the onset of sleep.

adult insomnia patients = experiment: Polysomnographic endpoints in adult insomnia patients treated with 3 mg doxepin

| time after dosing to reach plasma concentration of 0.1 ng/mL ([2]; 3 and 6 mg doses) | time after dosing for doxepin plasma concentration to reach 0.05 ng/mL ([2]; all doses) | Compound | solubility [1] | maintenance of sleep (adult insomnia patients) | residual sedation (adult insomnia patients) | sleep onset, on average, after bedtime (adult insomnia patients; polysomnographic endpoint) |
| --- | --- | --- | --- | --- | --- | --- |
|  |  | CN(C)CCC=C1c2ccccc2COc2ccccc21 [doxepin HCl, Doxepin HCl] | high solubility |  |  |  |
| ≤ 60 min | ≤ 90 min | CN(C)CCC=C1c2ccccc2COc2ccccc21 [doxepin] |  | persisted throughout the entire night (8 hours) | not followed by residual sedation | 27 min |
